In ChEMBL document CHEMBL1135097, “New readily accessible peroxides with high anti-malarial potency” (Bioorg Med Chem Lett, 2002):

Tested on: KB 3-1
Test: Compound was tested for cytotoxicity against human epidermoid carcinoma KB 3-1
Type: functional, cell-based
Conditions: Homo sapiens, KB 3-1

Structure (SMILES)	IC50
CCCCC[C@]1(OC)CC[C@@H](CC(=O)OC)OO1	53000 nM
CCCCCCCCCCCCCCCC[C@@]1(OC)C=C[C@@H](CC(=O)OC)OO1 [CHONDRILLIN]	630 nM
CC/C=C/C=C/CC[C@]1(OC)CC[C@H]([C@@H](C)C(=O)OC)OO1	28000 nM
CCCCCCCCC[C@]1(OC)CC[C@H](CC(=O)OC)OO1 (relative stereo)	2200 nM
CCCCCC1(OC)CCC(CC(=O)OC)OO1 (stereo in doubt; 5)	43000 nM
CC/C=C/C=C/CC[C@]1(OC)CC[C@@H](C(C)C(=O)OC)OO1 (single isomer, unassigned)	21000 nM
CCCCC[C@]1(OC)CC[C@H](CC(=O)OC)OO1	23000 nM
CCCCCCCCC[C@]1(OC)CC[C@@H](CC(=O)OC)OO1	4400 nM
CCCCCCCCCC1(OC)CCC(CC(=O)OC)OO1 (centres undefined)	4400 nM
COC(=O)CC1CCC(C)(OC)OO1 (centres undefined)	> 490 nM

Same assay, conditions: kb 3-1

Structure (SMILES)	IC50
CCCCCC1(OC)CCC(CC(=O)OC)OO1 (single isomer, unassigned; (+))	77000 nM
CCCCCC1(OC)CCC(CC(=O)OC)OO1 (single isomer, unassigned; (-))	82000 nM

Tested on: Plasmodium falciparum
Test: Antimalarial activity against Plasmodium falciparum
Type: functional, organism-based
Conditions: not given

Structure (SMILES)	IC50
CCCCCC1(OC)CCC(CC(=O)OC)OO1 (single isomer, unassigned; (+))	220 nM

Same assay, conditions: Plasmodium falciparum

Structure (SMILES)	IC50
CCCCC[C@]1(OC)CC[C@@H](CC(=O)OC)OO1	150 nM
CCCCCCCCCCCCCCCC[C@@]1(OC)C=C[C@@H](CC(=O)OC)OO1 [CHONDRILLIN]	> 240 nM
CC/C=C/C=C/CC[C@]1(OC)CC[C@H]([C@@H](C)C(=O)OC)OO1	120 nM
CCCCCCCCC[C@]1(OC)CC[C@H](CC(=O)OC)OO1 (relative stereo)	260 nM
CCCCCC1(OC)CCC(CC(=O)OC)OO1 (stereo in doubt; 5)	120 nM
CC/C=C/C=C/CC[C@]1(OC)CC[C@@H](C(C)C(=O)OC)OO1 (single isomer, unassigned)	150 nM
CCCCC[C@]1(OC)CC[C@H](CC(=O)OC)OO1	150 nM
CCCCCCCCC[C@]1(OC)CC[C@@H](CC(=O)OC)OO1	170 nM
CCCCCCCCCC1(OC)CCC(CC(=O)OC)OO1 (centres undefined)	140 nM
COC(=O)CC1CCC(C)(OC)OO1 (centres undefined)	> 2400 nM

Organism: Homo sapiens
Test: (§1) Selective toxicity index between parasite and cells of host-animals, human epidermoid carcinoma KB 3-1
Type: organism-based
Conditions: not given

Structure (SMILES)	Ratio
CCCCCC1(OC)CCC(CC(=O)OC)OO1 (single isomer, unassigned; (+))	350
CCCCCC1(OC)CCC(CC(=O)OC)OO1 (single isomer, unassigned; (-))	370

Tested on: not listed separately
Test: as §1
Type: organism-based
Conditions: KB 3-1 human epidermoid carcinoma cells

Structure (SMILES)	selectivity ratio
CCCCC[C@]1(OC)CC[C@@H](CC(=O)OC)OO1	350
CCCCCCCCCCCCCCCC[C@@]1(OC)C=C[C@@H](CC(=O)OC)OO1 [CHONDRILLIN]	< 2.6
CC/C=C/C=C/CC[C@]1(OC)CC[C@H]([C@@H](C)C(=O)OC)OO1	230
CCCCCCCCC[C@]1(OC)CC[C@H](CC(=O)OC)OO1 (relative stereo)	8
CCCCCC1(OC)CCC(CC(=O)OC)OO1 (stereo in doubt; 5)	360
CC/C=C/C=C/CC[C@]1(OC)CC[C@@H](C(C)C(=O)OC)OO1 (single isomer, unassigned)	140
CCCCC[C@]1(OC)CC[C@H](CC(=O)OC)OO1	150
CCCCCCCCC[C@]1(OC)CC[C@@H](CC(=O)OC)OO1	26
CCCCCCCCCC1(OC)CCC(CC(=O)OC)OO1 (centres undefined)	31
